Test results from PMC9499467, “Phenanthroindolizidine Alkaloids Isolated from Tylophora ovata as Potent Inhibitors of Inflammation, Spheroid Growth, and Invasion of Triple-Negative Breast Cancer” (International Journal of Molecular Sciences, 2022).

How the values were obtained:
HIF = test system: HIF; design: method as in earlier work; conditions: luminal breast cancer cell line T47D; ref 62 (Chen et al.); cited from earlier work
NFκB = NFκB inhibition assay (24 h), NFκB-dependent firefly luciferase reporter; assay type: cell-based; conditions: Homo sapiens, 24 h, read-out: NFκB Inhibition 24 h IC50
Protocol: On day 1, 3 × 10^4 NFκB MDA-MB-231-firefly cells were seeded into white 96 well plates (Greiner; #655098). On day 2, the medium was replaced with starvation medium and the cells were pre-incubated for 20 min with either 100 µL of DMSO (Roth; #A994.1) alone at maximal 0.1%, or with the final concentration of the diluted compounds (Table 3). To activate NFκB signaling, cells were stimulated with 20 ng/mL TNFα (Peprotech, Hamburg, Germany; #300-01A). Cell lysis was performed in 20 µL 1× cell lysis buffer according to the manufacturer’s instruction for the Luciferase Assay System (Promega #E1500). NFκB-dependent luminescence was determined as relative light units (RLU) using the microplate reader Spark® (Tecan).

HIF-1α = assay: HIF inhibition, HIF-mediated UnaG reporter expression; assay type: cell-based; conditions: for decrease of HIF-1α-mediated UnaG expression: normoxia, MDA-MB-468-UnaG
Protocol: The HIF activity after treatment with compound (1s) or with the commercially available NFκB inhibitor BAY 11-7085 ((Hycultec, Beutelsbach, Germany; #HY-10257-10),) for 24 h was determined using the UnaG-reporter gene cell line MDA-MB-468-UnaG. On day 1, 1.5 × 10^4 MDA-MB-468-UnaG cells were seeded into a black 96 well plate (Greiner; #655090). […] HIF-mediated UnaG expression was recorded in z-stacked images using the CQ1 high-content imaging system (Yokogawa, Wehr, Germany; 100× g magnification). Beforehand, the UnaG fluorescence intensity was determined in UnaG-expressing cell clones (Figure S5).
Figure 7 Compound (1s) decreases HIF-dependent gene transcription. MDA-MB-468-UnaG cells were pre-treated for 1 h without (CTRL) or with compound (1s) or BAY 11-7085 (BAY) before being grown (a,b) in the absence (normoxia; CTRL) or (c,d) presence of 100 µM CoCl2 (hypoxia) for another 24 h. (a,c) Representative fluorescence images. Scale bar: 200 µm (b,d) Total fluorescence intensity of HIF-mediated UnaG was normalized to the CTRL group. Statistical difference was calculated with one-way ANOVA (b) vs. CTRL (normoxia) (ns = not significant, * p < 0.05). (d) vs. CTRL (hypoxia) (# p < 0.05); vs. CoCl2 (* p < 0.05, ** p < 0.01, *** p < 0.001). (b,d) Columns represent the mean ± SEM (n = 3).

IκBα = assay: Western blot of IκBα after TNFα stimulation; assay type: cell-based; conditions: MDA-MB-468-UnaG
Protocol: We investigated NFκB-blocking by determining the protein expression of its cytoplasmic inhibitor IκBα in MDA-MB-468-UnaG cells. On day 1, the cells were seeded into a 6 well plate (Greiner; #657160). On day 2, the cells were either left untreated (normoxia) or exposed to 100 µM CoCl2 (hypoxia) (Sigma-Aldrich; #C8661). On day 3, the medium was replaced, and cells were either exposed to DMSO (Roth; #A994.1) alone at maximal 0.1% or to compound (1s) at the concentrations 2 nM, 5 nM, 10 nM, 20 nM, or 50 nM for 1 h. An amount of 10 ng/mL TNFα was applied as a positive control. […] An amount of 20 µg of the total protein was separated on a ready-to-use 12% SDS-gel (Bio-Rad, Düsseldorf, Germany; #456-1044). […] For protein detection via chemiluminescence, the membrane was incubated in HRP-substrate (Thermo Fisher Scientific; #34577) for 5 min and the signal was recorded using the Fusion Pulse TS microscope (VILBER, Eberhardzell; Germany). Signal quantification was performed using the software EvolutionCapt (VILBER). […]
Figure 8 Compound (1s) stabilizes IκBα under normoxic and under hypoxic conditions. […] Statistical difference vs. TNFα was calculated with two-way ANOVA (* p < 0.05, ** p < 0.01, *** p < 0.001). […]

SMILES | HIF induction under low oxygen level (HIF) | IC50 (NFκB) | reduction of HIF-1α-activity (HIF-1α; CoCl2-simulated hypoxia (100 µM), 20 nM, 24 h) | decrease of HIF-1α-mediated UnaG expression (HIF-1α; 10 nM, 24 h) | decrease of HIF-1α-mediated UnaG expression (HIF-1α; 20 nM, 24 h) | CoCl2-induced increase in HIF-1α-activity (HIF-1α; pre-treatment before CoCl2-simulated hypoxia, 6 µM BAY 11-7085, 2, 5, 10, 20 nM (1s)) | TNFα-mediated IκBα degradation (IκBα; CoCl2-simulated hypoxia, 20 nM) | IκBα protein level after TNFα (IκBα; normoxia, 20 nM pre-incubation 1 h, TNFα 10 ng/mL 30 min)
COc1ccc2c3c(c4cc(OC)c(OC)cc4c2c1)CN1CCCC1C3O (centres unmarked) [Compound (1), O-methyltylophorinidine] | blockade of HIF induction | 3.7 ± 1 nM | – | – | – | – | – | –
COc1ccc2c3c(c4cc(OC)c(OC)cc4c2c1)CN1CCCC1C3O (centres unmarked) [Compound (1s), O-methyltylophorinidine] | – | – | 14 ± 4% | 11 ± 3% | 13 ± 4% | blocked | suppressed | stabilized IκBα
